Converted amounts (≈) assume the structure as drawn. Where a SMILES comes first, the peptide text is derived from it.
Tests used:
[1] = test system: red blood cells (defibrinated sheep's blood); assay: RBC hemolysis assay; format: cell-based; conditions: RBCs
Description: Test substances were diluted 2-fold in water across a 96-well polypropylene mother plate, leaving one no-compound control. Two microliters from each well were stamped onto a 96-well polystyrene assay plate. A red blood cell suspension was made by mixing 0.2% defibrinated sheep’s blood (Hardy Diagnostics DSB100) in PBS. All assay plates received 100 μl/well of the red blood cell suspension. Plates were then incubated at 37°C overnight.

293T human cell line = assay: Mammalian cell cytotoxicity (CellTiter Glo); format: cell-based
Description: On day one, cells from an established 293T human cell line were seeded onto 96-well flat-bottom white plates (10,000 293T cells/well). On day two, dilution plates were prepared by diluting compound in cell growth medium to two times the final starting concentration and then carrying out serial two-fold dilutions across the plate. Medium from the cell growth assay plates was then aspirated, and 50 μl from the compound dilution plates were transferred to the assay plates. Fifty microliters of fresh media were then added to all the wells. The plates were incubated at 37°C, 5% CO2 for three days. […]. Media from the assay plates was aspirated, and 100 μl of CellTiter Glo/growth media mix was added to all wells. After five minutes, luminescence was read, and% inhibition vs. compound concentration was plotted.

P. aeruginosa ATCC 27853 = format: cell-based, Pseudomonas aeruginosa
Description: (§1) All plates were placed at 37°C overnight.

P. aeruginosa ATCC 39324 = format: cell-based, Pseudomonas aeruginosa
Description: as §1

MIC in human serum = format: cell-based; conditions: ratio to MIC, strain not given, NA = no activity in human serum
E. coli ATCC 25922 = test system: E. coli ATCC 25922
Description: (§2) MICs and a killing assay were performed in this study. MICs were determined according to CLSI guidelines, using 2-fold serial compound dilutions in 96-well microtiter plates. Briefly, compounds were diluted in water across a mother plate and then 2 μl were stamped to assay plates—one plate for each strain to be tested. Bacterial strains were sub-cultured overnight on agar plates at 37°C. […] These concentrated cultures were diluted 1:200 in growth media to approximately 5 x 10^5 cells/ml. All assay plates received 100 μL diluted culture per well. All plates were placed at 37°C overnight. […] Wells at and above the MIC should appear devoid of growth when visualized.

S. aureus 29213 = test system: S. aureus 29213
Description: as §2

[2] = molar equivalent of the MIC, unit not given
[3] = CLSI microdilution, 2-fold dilutions, ~5 x 10^5 cells/ml, 37°C, 18 hours, MIC = at least 80% growth inhibition

Structure (SMILES) | hemolytic activity [1] | cytotoxic activity (293T human cell line; mammalian cells / 293T) | MIC P. aeruginosa ATCC 27853 (P. aeruginosa ATCC 27853; CLSI microdilution, 2-fold dilutions, ~5 x 10^5 cells/ml, 37°C, 18 hours, MIC = lowest concentration inhibiting growth by at least 80%) | MIC P. aeruginosa ATCC 27853, molar equivalents (number in parentheses) (P. aeruginosa ATCC 27853; [2]) | MIC P. aeruginosa ATCC 39324 (P. aeruginosa ATCC 39324; [3]) | MIC P. aeruginosa ATCC 39324, molar equivalents (number in parentheses) (P. aeruginosa ATCC 39324; [2]) | Human Serum hsMIC/MIC (MIC in human serum) | Cytotox CC50 (293T human cell line; 293T cells, 10,000 cells/well, three days, 37°C, CellTiter Glo luminescence) | MIC E. coli ATCC 25922 (E. coli ATCC 25922; [3]) | MIC E. coli ATCC 25922, molar equivalents (number in parentheses) (E. coli ATCC 25922; [2]) | MIC S. aureus 29213 (S. aureus 29213; [3]) | MIC S. aureus 29213, molar equivalents (number in parentheses) (S. aureus 29213; [2])
CC[C@@H](C)[C@@H](NC(=O)[C@H](NC(=O)[C@@H](CCCNC(=N)N)NC(=O)[C@H]1CCCN1C(=O)[C@@H](CCCCN)NC(=O)[C@@H](CCCCN)NC(=O)[C@@H](Cc1ccccc1)NC(=O)[C@@H](Cc1ccccc1)NC(=O)[C@@H](CCC(=O)O)NC(=O)[C@@H](CCCCN)NC(=O)[C@@H](C)NC(=O)[C@@H](CCCNC(=N)N)NC(=O)[C@@H](CCCCN)NC(=O)[C@@H](CCCCN)NC(=O)[C@H](NC(=O)[C@@H](CO)NC(=O)[C@@H](CCCCN)NC(=O)[C@@H](CCCCN)NC(=O)[C@@H](CC(C)C)NC(=O)[C@@H](CCCCN)NC(=O)[C@@H](CCCNC(=N)N)NC(=O)[C@@H](Cc1ccccc1)NC(=O)[C@@H](Cc1ccccc1)NC(=O)[C@@H](CCCCN)NC(=O)CNC(=O)CNC(=O)CN)C(C)C)C(C)C)C(=O)NCC(=O)N[C@@H](C(=O)N[C@H](CO)C(=O)N[C@@H](C(=O)N1CCC[C@@H]1C(=O)N[C@H](Cc1ccccc1)C(=O)O)[C@H](C)CC)C(C)C [D297] (HELM PEPTIDE1{G.G.G.[dK].[dF].[dF].[dR].[dK].[dL].[dK].[dK].[dS].[dV].[dK].[dK].[dR].[dA].[dK].[dE].[dF].[dF].[dK].[dK].[dP].[dR].[dV].[dI].G.[dV].[dS].[dI].[dP].[dF]}$$$$V2.0) | low | low |  |  |  |  |  |  |  |  |  | 
CC(C)(O/N=C(\C(=O)N[C@@H]1C(=O)N2C(C(=O)[O-])=C(C[n+]3ccccc3)CS[C@H]12)c1csc(N)n1)C(=O)O [Ceftazadime, reference compound] |  |  | 1 µg/mL (≈ 1.83 µM) | 1.8 | 1 µg/mL (≈ 1.83 µM) | 1.8 | 1 | 550 µg/mL | 0.25 µg/mL (≈ 0.457 µM) | 0.5 | 4 µg/mL (≈ 7.32 µM) | 7.3

Source: publication PMC10508631, “Development of an antibody fused with an antimicrobial peptide targeting Pseudomonas aeruginosa: A new approach to prevent and treat bacterial infections” (PLOS Pathogens, 2023)
